Data as given in patent EP2459560B1, “RING-ANNULATED DIHYDROPYRROLO[2,L-A]ISOQUINOLINES” (Merck Sharp & Dohme B.V., priority 2009, dated 2011).

Target: T1, human FSH receptor (Homo sapiens, UniProt P23945)
T1 construct: expressed in transfected cells; host or cells: Chinese Hamster Ovary (CHO) cells, stably transfected; cotransfected with CRE/promoter-firefly luciferase reporter
T1 sequence (P23945 18-695): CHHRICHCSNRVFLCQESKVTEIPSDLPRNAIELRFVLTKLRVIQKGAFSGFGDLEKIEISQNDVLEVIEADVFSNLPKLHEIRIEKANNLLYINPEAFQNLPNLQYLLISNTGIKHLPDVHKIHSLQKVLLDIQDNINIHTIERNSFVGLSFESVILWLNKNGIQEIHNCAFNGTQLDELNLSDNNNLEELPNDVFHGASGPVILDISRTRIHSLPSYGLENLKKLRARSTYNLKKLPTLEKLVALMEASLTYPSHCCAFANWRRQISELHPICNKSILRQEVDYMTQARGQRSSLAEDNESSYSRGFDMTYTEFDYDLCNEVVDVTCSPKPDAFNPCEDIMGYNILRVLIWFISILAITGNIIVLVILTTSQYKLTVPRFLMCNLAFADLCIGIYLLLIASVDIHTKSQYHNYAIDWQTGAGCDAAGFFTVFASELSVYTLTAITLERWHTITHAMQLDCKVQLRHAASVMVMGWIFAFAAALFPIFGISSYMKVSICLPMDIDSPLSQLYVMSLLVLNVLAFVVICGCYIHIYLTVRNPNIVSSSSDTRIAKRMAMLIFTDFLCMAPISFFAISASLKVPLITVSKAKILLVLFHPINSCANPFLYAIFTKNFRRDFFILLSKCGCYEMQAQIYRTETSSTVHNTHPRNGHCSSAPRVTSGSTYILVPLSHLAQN
Assay: Agonistic activity at the human FSH receptor expressed in CHO cells (CRE-luciferase reporter)
Type: cell-based
Conditions: CHO cells stably transfected with the human FSH receptor and a CRE/luciferase reporter, 4 hours of incubation, pEC50 is -logEC50; for EC50: read-out: hFSHRago (CHO luc) pEC50 (converted)
Description: For the determination a software program such as MathIQ (version 2.0, ID Business Solutions Limited) can be used.
Agonistic activity of compounds at the human FSH receptor expressed in CHO cells
Agonistic activity of the compounds at the human FSH receptor was determined in Chinese Hamster Ovary (CHO) cells stably transfected with the human FSH receptor and cotransfected with a cAMP responsive element (CRE)/promotor directing the expression of a firefly luciferase reporter gene. […] The final concentration of DMSO was 1%. After 4 hours of incubation, plates were allowed to adjust to room temperature for 1 hour. Then, Luclite (PerkinElmer) solution was added to the wells and cells were allowed to lyse for at least 1 hour at room temperature. Subsequently, luciferase activity was measured in a luminescence counter. The signal is expressed as counts per second (cps).

Row | hFSHRago (CHO luc) pEC50 | EC50 [nM] | Molecule
1 | 8.51 |  | 9-tert-butyl-3-methoxy-2-pyridin-3-yl-14-(1,3-thiazol-5-yl)-5,6,10,11,12,13-hexahydroazocino[4',3':4,5]pyrrolo[2,1-a]isoquinolin-8(9H)-one [11j]
2 |  | 5.25 | COc1cc2c(cc1[C@@H](O)[C@H](O)CO)-c1c(-c3cccs3)c3c(n1CC2)C(=O)N(C(C)(C)C)CCCC3 [21i]
3 |  | 64.6 | COc1cc2c(cc1-c1cnn(C)c1)-c1c(-c3cccs3)c3c(n1CC2)C(=O)N(C(C)(C)C)CCC3 [4h]
4 |  | 0.316 | COc1cc2c(cc1-c1cccnc1)-c1c(-c3cccs3)c3c(n1CC2)C(=O)N(C(C)(C)C)CCSC3 [9k, 9-tert-butyl-3-methoxy-2-pyridin-3-yl-14-(2-thienyl)-5,6,10,11,13,13a-hexahydro-7aH-[1,4]thiazocino[7',6':4,5]pyrrolo[2,1-a]isoquinolin-8(9H)-one]
5 |  | 13.8 | COc1cc2c(cc1-c1cnccn1)-c1c(-c3cccs3)c3c(n1CC2)C(=O)N(C(C)(C)C)CCC3 [4i, 9-tert-butyl-2-(pyrazin-2-yl)-3-methoxy-13-(2-thienyl)-5,6,9,10,11,12-hexahydro-8H-azepino[4',3':4,5]pyrrolo[2,1-a]isoquinolin-8-one]
